Test results reported in PubChem BioAssay AID182 (DTP/NCI, 2004).
Where “and” joins values, the source holds several entries; their conditions need not be identical. Equal values may be shown once. Inconclusive results and toxic doses are left out. The calls were made as follows: active = survival T/C of 150% or more; inactive = T/C below 125% in these data. Starred links: 1 amine or outer side, 2 acyl side, 3 side chain; linkers in the order of their positions; H or OH if unused. Positions of bridges follow the written chain, without caps; N, C: chain ends. Non-standard residues stand in square brackets, D forms with d. Residues, ends and D or L forms follow the SMILES beside them. Chains are numbered I, II in the order given. Actinocin(9to1) = Cc1c2oc3c(C)ccc(C(=O)[*:1])c3nc-2c(C(=O)[*:2])c(N)c1=O; NMeV = CN[CH](C(=O)O)C(C)C; Aze = O=C(O)[CH]1CCN1; Sar = CNCC(=O)O

Tested on: BDF1 mice, P388/ADR leukemia ip, median survival T/C
Experiment: NCI In Vivo Anticancer Drug Screen. Data for tumor model P388 Leukemia resistant to Adriamycin; NSC 123127, Developed at Scr 06 and 41 (intraperitoneal) in B6D2F1 (BDF1) mice
Conditions: endpoint: median survival time, higher = longer survival
Description: The antitumor activity of compounds was measured in mice bearing transplantable tumors. Survival or tumor size were measured and the results are expressed as the measurement made in the treated group (T) divided by the measurement made in the vehicle treated control group (C). The tumor model used in this assay is P388 Leukemia resistant to Adriamycin; NSC 123127, Developed at Scr 06 and 41 (intraperitoneal) in B6D2F1 (BDF1) mice

[1] = dose: 1.44 mg/kg/injection, schedule: Q04DX003 (ip), vehicle: water
[2] = dose: 2.4 mg/kg/injection, schedule: Q04DX003 (ip), vehicle: water
[3] = dose: 18.0 mg/kg/injection, schedule: Q04DX003 (ip), vehicle: saline

Measured: T/C

CCN(CC)CCNc1ccc(CO)c2sc3ccccc3c(=O)c12
inactive: dose: 17.3 mg/kg/injection, schedule: Q01DX009 (ip), vehicle: water 93 % of control | dose: 25.2 mg/kg/injection, schedule: Q01DX009 (ip), vehicle: water 108 % of control | dose: 28.8 mg/kg/injection, schedule: Q01DX009 (ip), vehicle: water 100 % of control | dose: 42.0 mg/kg/injection, schedule: Q01DX009 (ip), vehicle: water 117 % of control | dose: 48.0 mg/kg/injection, schedule: Q01DX009 (ip), vehicle: water 104 % of control | dose: 70.0 mg/kg/injection, schedule: Q01DX009 (ip), vehicle: water 104 % of control | dose: 117.0 mg/kg/injection, schedule: Q01DX009 (ip), vehicle: water 88 % of control

CCC1(O)CC(OC2CC(N(C)C)C(OC3CC4OC5CC(=O)C(C)OC5OC4C(C)O3)C(C)O2)c2c(cc3c(c2O)C(=O)c2c(O)ccc(O)c2C3=O)C1C(=O)OC (stereo not drawn)
inactive: dose: 0.86 mg/kg/injection, schedule: Q04DX003 (ip), vehicle: water 112 % of control | dose: 1.3 mg/kg/injection, schedule: Q04DX003 (ip), vehicle: water 115 % of control | [1] 120 % of control | [2] 124 % of control

COc1cccc2c1C(=O)c1c(O)c3c(c(O)c1C2=O)C[C@@](O)(/C(C)=N/NC(=O)c1ccccc1)C[C@@H]3OC1CC(N)C(O)C(C)O1 (stereo partly drawn)
inactive: dose: 6.5 mg/kg/injection, schedule: Q04DX003 (ip), vehicle: water 107 % of control | dose: 10.8 mg/kg/injection, schedule: Q04DX003 (ip), vehicle: water 115 % of control | dose: 18.0 mg/kg/injection, schedule: Q04DX003 (ip), vehicle: water 105 % of control

CC[C@]1(O)C[C@H](OC2CC(N(C)C)C(OC3CC(O)C(O)C(C)O3)C(C)O2)c2c(cc3c(c2O)C(=O)c2c(O)ccc(O)c2C3=O)[C@H]1C(=O)OC (stereo partly drawn)
inactive: dose: 3.46 mg/kg/injection, schedule: Q04DX003 (ip), vehicle: other 106 % of control | dose: 5.76 mg/kg/injection, schedule: Q04DX003 (ip), vehicle: other 102 % of control | dose: 9.6 mg/kg/injection, schedule: Q04DX003 (ip), vehicle: other 93 % of control

COc1cccc2c1C(=N)c1c(O)c3c(c(O)c1C2=O)C[C@@](O)(C(C)=O)C[C@@H]3OC1CC(N)C(O)C(C)O1 (stereo partly drawn)
inactive: dose: 3.46 mg/kg/injection, schedule: Q04DX003 (ip), vehicle: saline 99 % of control | dose: 5.76 mg/kg/injection, schedule: Q04DX003 (ip), vehicle: saline 102 % of control | dose: 9.6 mg/kg/injection, schedule: Q04DX003 (ip), vehicle: saline 115 % of control | dose: 16.0 mg/kg/injection, schedule: Q04DX003 (ip), vehicle: saline 104 % of control

COc1cccc2c1C(=O)c1c(O)c3c(c(O)c1C2=O)C[C@@](O)(C(C)=O)C[C@@H]3OC1CC(N)C(O)C(C)O1 (stereo partly drawn)
inactive: dose: 1.73 mg/kg/injection, schedule: Q04DX003 (ip), vehicle: water 122 % of control | dose: 2.88 mg/kg/injection, schedule: Q04DX003 (ip), vehicle: water 114 % of control | dose: 4.8 mg/kg/injection, schedule: Q04DX003 (ip), vehicle: water 121 % of control | dose: 8.0 mg/kg/injection, schedule: Q04DX003 (ip), vehicle: water 104 % of control and 107 % of control

O=NN(CCCl)C(=O)NCCCl
active: dose: 13.0 mg/kg/injection, schedule: Q01DX001 (ip), vehicle: saline + alcohol 169 % of control | dose: 21.6 mg/kg/injection, schedule: Q01DX001 (ip), vehicle: saline + alcohol 499 % of control | dose: 36.0 mg/kg/injection, schedule: Q01DX001 (ip), vehicle: saline + alcohol 499 % of control

O=P1(N(CCCl)CCCl)NCCCO1 (stereo not drawn)
active: dose: 108.0 mg/kg/injection, schedule: Q01DX001 (ip), vehicle: saline 476 % of control | dose: 180.0 mg/kg/injection, schedule: Q01DX001 (ip), vehicle: saline 475 % of control

O=C1N[C@@H]([C@H]2CC[C@H](Cl)CN2)C(=O)N[C@H]1[C@H]1CC[C@H](Cl)CN1
inactive: dose: 6.67 mg/kg/injection, schedule: Q04DX003 (ip), vehicle: water 122 % of control
active: [1] 158 % of control | [2] 213 % of control | dose: 4.0 mg/kg/injection, schedule: Q04DX003 (ip), vehicle: water 221 % of control

CC1OC(O[C@H]2/C=C/C=C/C=C/C=C/C=C/C=C/C=C/[C@H](C)[C@@H](O)[C@@H](C)[C@H](C)OC(=O)C[C@H](O)C[C@H](O)CC[C@@H](O)[C@H](O)C[C@H](O)C[C@]3(O)C[C@H](O)[C@@H](C(=O)O)[C@H](C2)O3)C(O)C(N)C1O (stereo partly drawn)
inactive: dose: 20.0 mg/kg/injection, schedule: Q04DX003 (ip), vehicle: clinical formulation 93 % of control

Cc1c2oc3c(C)ccc(C(=O)NC4C(=O)NC(C(C)C)C(=O)N5CCC5C(=O)N(C)CC(=O)N(C)C(C(C)C)C(=O)OC4C)c3nc-2c(C(=O)NC2C(=O)NC(C(C)C)C(=O)N3CCC3C(=O)N(C)CC(=O)N(C)C(C(C)C)C(=O)OC2C)c(N)c1=O (stereo not drawn) (I: TV[Aze][Sar][NMeV] / II: TV[Aze][Sar][NMeV]; ester I:1-I:C, II:1-II:C; linker I:N-II:N via Actinocin(9to1); configuration not given here)
inactive: dose: 216.0 micrograms/kg/injection, schedule: Q01DX003 (ip), vehicle: saline + alcohol 110 % of control | dose: 360.0 micrograms/kg/injection, schedule: Q01DX003 (ip), vehicle: saline + alcohol 103 % of control | dose: 600.0 micrograms/kg/injection, schedule: Q01DX003 (ip), vehicle: saline + alcohol 104 % of control | dose: 1000.0 micrograms/kg/injection, schedule: Q01DX003 (ip), vehicle: saline + alcohol 86 % of control

Cc1c2ccncc2c(C)c2c1[nH]c1ccccc12
inactive: dose: 13.0 mg/kg/injection, schedule: Q04DX003 (ip), vehicle: water 112 % of control | dose: 21.6 mg/kg/injection, schedule: Q04DX003 (ip), vehicle: water 104 % of control and 109 % of control | dose: 36.0 mg/kg/injection, schedule: Q04DX003 (ip), vehicle: water 110 % of control and 117 % of control

COC1C(O)C(C)OC(OC2C(Oc3cccc4c(O)c5c(=O)oc6ccc(C)c7c(=O)oc(c34)c5c67)OC(C)C(O)C2O)C1O (stereo not drawn)
inactive: dose: 43.2 mg/kg/injection, schedule: Q04DX003 (ip), vehicle: Klucel (hydroxypropylcellulose) (HPC) 87 % of control

CC(=O)[C@]1(O)Cc2c(O)c3c(c(O)c2[C@@H](OC2CC(N)C(O)C(C)O2)C1)C(=O)c1c(O)cccc1C3=O (stereo partly drawn)
inactive: dose: 0.32 mg/kg/injection, schedule: Q04DX003 (ip), vehicle: water 108 % of control | dose: 0.39 mg/kg/injection, schedule: Q04DX003 (ip), vehicle: water 118 % of control | dose: 0.54 mg/kg/injection, schedule: Q04DX003 (ip), vehicle: water 88 % of control | dose: 0.65 mg/kg/injection, schedule: Q04DX003 (ip), vehicle: water 123 % of control

COC1=C(N)C(=O)c2nc(-c3nc(C(=O)O)c(C)c(-c4ccc(OC)c(OC)c4O)c3N)ccc2C1=O
inactive: dose: 144.0 micrograms/kg/injection, schedule: Q04DX003 (ip), vehicle: alkali diluted with saline 120 % of control | dose: 240.0 micrograms/kg/injection, schedule: Q04DX003 (ip), vehicle: alkali diluted with saline 120 % of control | dose: 400.0 micrograms/kg/injection, schedule: Q04DX003 (ip), vehicle: alkali diluted with saline 122 % of control | dose: 667.0 micrograms/kg/injection, schedule: Q04DX003 (ip), vehicle: alkali diluted with saline 121 % of control

CC[C@](O)(C(=O)O)c1cc2n(c(=O)c1CO)Cc1cc3ccccc3nc1-2
active: [3] 183 % of control | dose: 30.0 mg/kg/injection, schedule: Q04DX003 (ip), vehicle: saline 209 % of control | dose: 50.0 mg/kg/injection, schedule: Q04DX003 (ip), vehicle: saline 206 % of control

O=CC(NC(=O)N(CCCl)N=O)C(O)C(O)C(O)CO (stereo not drawn)
active: dose: 6.48 mg/kg/injection, schedule: Q04DX003 (ip), vehicle: saline 240 % of control | dose: 10.8 mg/kg/injection, schedule: Q04DX003 (ip), vehicle: saline 553 % of control
inactive: [3] 120 % of control

O=C(Nc1ccc(C2=NCCCN2)cc1)c1ccc(C(=O)Nc2ccc(C3=NCCCN3)cc2)cc1
inactive: dose: 10.8 mg/kg/injection, schedule: Q04DX003 (ip), vehicle: other 118 % of control | dose: 30.0 mg/kg/injection, schedule: Q04DX003 (ip), vehicle: other 94 % of control

CC(=O)C1(O)Cc2c(O)c3c(c(O)c2C(OC2CC(N)C(O)C(C)O2)C1)C(=O)c1ccccc1C3=O (stereo not drawn)
inactive: dose: 324.0 micrograms/kg/injection, schedule: Q04DX003 (ip), vehicle: water 119 % of control | dose: 540.0 micrograms/kg/injection, schedule: Q04DX003 (ip), vehicle: water 122 % of control | dose: 900.0 micrograms/kg/injection, schedule: Q04DX003 (ip), vehicle: water 122 % of control | dose: 1500.0 micrograms/kg/injection, schedule: Q04DX003 (ip), vehicle: water 98 % of control
